Measured values from patent US12281079B2, “Quinoline derivatives, processes for their preparation and uses thereof for the treatment of cancer” (Lead Discovery Center GmbH, priority 2019, dated 2025).

Experiments:
[1] = biological target: mitochondrial RNA polymerase (POLRMT) (Mus musculus, UniProt Q8BKF1); assay: Homogeneous TR-FRET assay for mitochondrial transcription activity; assay type: biochemical; settings: homogeneous TR-FRET assay according to Example 4
Outline: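 Read-out is TR-FRET (ex 340, em 665 nm) from two adjacent labelled DNA probes annealing to the 407 bp transcript after EDTA/700 mM NaCl stop. Reaction: murine POLRMT, TFAM, TFB2M and LSP plasmid template, compound 10 μM or serial dilution, 10 min rt preincubation, 500 μM each nucleotide, 2 h rt.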

[2] = system: mitochondrial transcription (7S RNA) in HeLa cells; assay: Quantitative real time-PCR assay of inhibition of mitochondrial transcription (7S RNA) in HeLa cells; assay type: cell-based; settings: Homo sapiens, 4 h compound incubation, according to Example 5, read-out: cellular qPCR assay
Outline: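 HeLa cells were exposed to compound dilution series or DMSO for 4 h, then RNA was extracted, normalized and reverse-transcribed. TaqMan qRT-PCR measured short-lived 7S RNA, with POLRMT as nuclear-transcription readout and TBP as housekeeping gene. Biological triplicates were analyzed by ΔΔCt and reported as Rq % (2−ΔΔCt).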

mitochondrial RNA polymerase (POLRMT), sequence (Q8BKF1 42-1207): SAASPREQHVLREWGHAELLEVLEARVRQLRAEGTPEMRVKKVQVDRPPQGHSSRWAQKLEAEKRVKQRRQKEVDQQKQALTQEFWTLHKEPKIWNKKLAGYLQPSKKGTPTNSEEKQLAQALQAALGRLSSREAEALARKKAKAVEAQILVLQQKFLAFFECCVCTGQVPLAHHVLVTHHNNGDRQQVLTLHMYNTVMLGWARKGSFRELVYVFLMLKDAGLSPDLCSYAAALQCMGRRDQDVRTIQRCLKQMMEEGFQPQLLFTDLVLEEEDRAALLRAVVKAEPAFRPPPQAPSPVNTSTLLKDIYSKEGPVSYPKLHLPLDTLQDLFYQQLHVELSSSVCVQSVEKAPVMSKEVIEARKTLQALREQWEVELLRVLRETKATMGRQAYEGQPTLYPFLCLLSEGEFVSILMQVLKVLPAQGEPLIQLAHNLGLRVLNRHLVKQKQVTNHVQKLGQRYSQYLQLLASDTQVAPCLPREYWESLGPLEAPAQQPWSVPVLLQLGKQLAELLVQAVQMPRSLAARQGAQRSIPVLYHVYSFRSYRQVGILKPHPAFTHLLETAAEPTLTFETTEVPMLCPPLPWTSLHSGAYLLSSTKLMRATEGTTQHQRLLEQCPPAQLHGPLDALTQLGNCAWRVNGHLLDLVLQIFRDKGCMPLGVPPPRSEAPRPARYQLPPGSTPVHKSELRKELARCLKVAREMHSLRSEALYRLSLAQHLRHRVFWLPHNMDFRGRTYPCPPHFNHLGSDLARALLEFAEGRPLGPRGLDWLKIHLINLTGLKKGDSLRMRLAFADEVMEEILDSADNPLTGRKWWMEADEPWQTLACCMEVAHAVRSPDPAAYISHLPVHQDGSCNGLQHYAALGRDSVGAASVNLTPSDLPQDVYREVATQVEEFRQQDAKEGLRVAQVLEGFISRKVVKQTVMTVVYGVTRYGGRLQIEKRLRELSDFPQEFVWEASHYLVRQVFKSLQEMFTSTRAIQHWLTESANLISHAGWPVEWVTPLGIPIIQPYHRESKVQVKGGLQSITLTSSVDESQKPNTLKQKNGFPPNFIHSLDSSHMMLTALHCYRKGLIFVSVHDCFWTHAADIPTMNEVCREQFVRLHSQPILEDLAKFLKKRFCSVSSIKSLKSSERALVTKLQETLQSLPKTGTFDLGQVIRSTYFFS

| IC50 [1] | IC50 [2] | SMILES |
| --- | --- | --- |
| 100 to 1000 nM | 10 to 50 nM | C[C@@H](Oc1ccc2c(-c3c(Cl)cc(F)cc3Cl)ccnc2c1)C(=O)N1CCOCC1 [Compound 201, (2R)-2-[[4-(2,6-dichloro-4-fluoro-phenyl)-7-quinolyl]oxy]-1-morpholino-propan-1-one] |
| 100 to 1000 nM | 10 to 50 nM | C[C@@H](Oc1ccc2c(-c3c(Cl)cc(F)cc3Cl)ccnc2c1)C(=O)N1CCC2(CCNC2=O)CC1 [Compound 202, 8-[(2R)-2-[[4-(2,6-dichloro-4-fluoro-phenyl)-7-quinolyl]oxy]propanoyl]-2,8-diazaspiro[4.5]decan-1-one] |
| 100 to 1000 nM | 10 to 50 nM | C[C@@H]1CCCCN1C(=O)[C@@H](C)Oc1ccc2c(-c3c(Cl)cc(F)cc3Cl)ccnc2c1 [Compound 204, (2R)-2-[[4-(2,6-dichloro-4-fluoro-phenyl)-7-quinolyl]oxy]-1-[(2R)-2-methyl-1-piperidyl]propan-1-one] |
| 100 to 1000 nM | 10 to 50 nM | C[C@@H](Oc1ccc2c(-c3ccc(F)cc3Cl)ccnc2c1)C(=O)N1CCC2(CCNC2=O)CC1 [Compound 205, 8-[(2R)-2-[[4-(2-chloro-4-fluoro-phenyl)-7-quinolyl]oxy]propanoyl]-2,8-diazaspiro[4.5]decan-1-one] |
| 100 to 1000 nM | 10 to 50 nM | C[C@@H](Oc1ccc2c(-c3ccc(F)cc3Cl)ccnc2c1)C(=O)N1CCOCC1 [Compound 206, (2R)-2-[[4-(2-chloro-4-fluoro-phenyl)-7-quinolyl]oxy]-1-morpholino-propan-1-one] |
| 100 to 1000 nM | < 10 nM | C[C@@H](Oc1ccc2c(-c3ccc(F)cc3Cl)ccnc2c1)C(=O)N1CCCC(C2(O)CC2)C1 (stereo partly drawn) [Compound 207, (2R)-2-[[4-(2-chloro-4-fluoro-phenyl)-7-quinolyl]oxy]-1-[3-(1-hydroxycyclopropyl)-1-piperidyl]propan-1-one] |
| 100 to 1000 nM | 10 to 50 nM | C[C@@H](Oc1ccc2c(-c3c(Cl)cc(F)cc3Cl)ccnc2c1)C(=O)N1CCC2(CC1)COC2 [Compound 208, (2R)-2-[[4-(2,6-dichloro-4-fluoro-phenyl)-7-quinolyl]oxy]-1-(2-oxa-7-azaspiro[3.5]nonan-7-yl)propan-1-one] |
| 100 to 1000 nM | 10 to 50 nM | CC(=O)N(O)[C@H]1CCCN(C(=O)[C@@H](C)Oc2ccc3c(-c4ccc(F)cc4Cl)ccnc3c2)C1 [Compound 209, N-hydroxy-N-[(3S)-1-[(2R)-2-[[4-(2-chloro-4-fluoro-phenyl)-7-quinolyl]oxy]propanoyl]-3-piperidyl]acetamide] |
| 100 to 1000 nM | 10 to 50 nM | C[C@@H](Oc1ccc2c(-c3ccc(F)cc3Cl)ccnc2c1)C(=O)N1CCC2(CC1)COC2 [Compound 210, (2R)-2-[[4-(2-chloro-4-fluoro-phenyl)-7-quinolyl]oxy]-1-(2-oxa-7-azaspiro[3.5]nonan-7-yl)propan-1-one] |
| 100 to 1000 nM | 10 to 50 nM | CC1CCCC(C)N1C(=O)[C@@H](C)Oc1ccc2c(-c3ccc(F)cc3Cl)ccnc2c1 (stereo partly drawn) [Compound 211, (2R)-2-[[4-(2-chloro-4-fluoro-phenyl)-7-quinolyl]oxy]-1-(2,6-dimethyl-1-piperidyl)propan-1-one] |
| 100 to 1000 nM | < 10 nM | C[C@@H](Oc1ccc2c(-c3ccc(F)cc3Cl)ccnc2c1)C(=O)N1CCCC2(COC2)C1 [Compound 212, (2R)-2-[[4-(2-chloro-4-fluoro-phenyl)-7-quinolyl]oxy]-1-(2-oxa-8-azaspiro[3.5]nonan-8-yl)propan-1-one] |
| 100 to 1000 nM | 50 to 500 nM | C[C@@H](Oc1ccc2c(-c3ccc(F)cc3Cl)ccnc2c1)C(=O)N1CCC2(COC2)C1 [Compound 213, (2R)-2-[[4-(2-chloro-4-fluoro-phenyl)-7-quinolyl]oxy]-1-(2-oxa-7-azaspiro[3.4]octan-7-yl)propan-1-one] |
| 100 to 1000 nM | 50 to 500 nM | C[C@@H](Oc1ccc2c(-c3ccc(F)cc3Cl)ccnc2c1)C(=O)N1CC[C@@H](NC(=O)NC(C)(C)C)C1 [Compound 214, 1-tertbutyl-3-[(3R)-1-[(2R)-2-[[4-(2-chloro-4-fluoro-phenyl)-7-quinolyl]oxy]propanoyl]pyrrolidin-3-yl]urea] |
| 100 to 1000 nM | 50 to 500 nM | C[C@@H](Oc1ccc2c(-c3ccc(F)cc3Cl)ccnc2c1)C(=O)N1CC(C)(C)NC(C)(C)C1 [Compound 215, (2R)-2-[[4-(2-chloro-4-fluoro-phenyl)-7-quinolyl]oxy]-1-(3,3,5,5-tetramethylpiperazin-1-yl)propan-1-one] |
| 100 to 1000 nM | 50 to 500 nM | CC1CN(C(=O)[C@@H](C)Oc2ccc3c(-c4ccc(F)cc4Cl)ccnc3c2)CC(C)N1 (stereo partly drawn) [Compound 216, (2R)-2-[[4-(2-chloro-4-fluoro-phenyl)-7-quinolyl]oxy]-1-(3,5-dimethylpiperazin-1-yl)propan-1-one] |
| 20 to 100 nM | 50 to 500 nM | C[C@@H](Oc1ccc2c(-c3ccc(F)cc3Cl)ccnc2c1)C(=O)N1CCC=C(C(=O)O)C1 [Compound 219, 1-[(2R)-2-[[4-(2-chloro-4-fluoro-phenyl)-7-quinolyl]oxy]propanoyl]-3,6-dihydro-2H-pyridine-5-carboxylic acid] |
| 20 to 100 nM | < 10 nM | C[C@@H](Oc1ccc2c(-c3c(Cl)cc(F)cc3Cl)ccnc2n1)C(=O)N1CCC[C@H](CC(=O)O)C1 [Compound 220, 2-[(3R)-1-[(2R)-2-[[5-(2,6-dichloro-4-fluoro-phenyl)-1,8-naphthyridin-2-yl]oxy]propanoyl]-3-piperidyl]acetic acid] |
| < 20 nM | < 10 nM | Cc1cc(F)cc(C)c1-c1ccnc2nc(O[C@H](C)C(=O)N3CCC[C@H](CC(=O)O)C3)ccc12 [Compound 221, 2-[(3R)-1-[(2R)-2-[[5-(4-fluoro-2,6-dimethyl-phenyl)-1,8-naphthyridin-2-yl]oxy]propanoyl]-3-piperidyl]acetic acid] |
